Measured values from patent US11071300B2, “Pesticidally active pyrazole derivatives” (SYNGENTA PARTICIPATIONS AG, priority 2017, dated 2021).
Like-named read-outs stand apart in the source and are kept apart here.

Legend:
Type in all cases: in vivo
[1] = test system: Spodoptera littoralis; test: Spodoptera littoralis (Egyptian cotton leaf worm) leaf disc test; conditions: foliar, 72 h, application rate 200 ppm, cotton leaf discs sprayed, L1 larvae, 3 days after infestation, read-out: control (at least one of mortality, anti-feedant effect, growth inhibition)
Experimental: Spodoptera littoralis (Egyptian Cotton Leaf Worm)
Cotton leaf discs were placed on agar in 24-well microtiter plates and sprayed with aqueous test solutions prepared from 10′000 ppm DMSO stock solutions. After drying the leaf discs were infested with five L1 larvae. The samples were assessed for mortality, anti-feedant effect, and growth inhibition in comparison to untreated samples 3 days after infestation. Control of Spodoptera littoralis by a test sample is when at least one of mortality, anti-feedant effect, and growth inhibition is higher than the untreated sample.

[2] = test system: Thrips tabaci; test: Thrips tabaci (onion thrips) leaf disc test; conditions: foliar, 144 h, read-out: control (mortality)
Experimental: Thrips tabaci (Onion Thrips):
Sunflower leaf discs were placed on agar in 24-well microtiter plates and sprayed with aqueous test solutions prepared from 10′000 ppm DMSO stock solutions. After drying the leaf discs were infested with a thrips population of mixed ages. The samples were assessed for mortality 6 days after infestation.

[3] = test system: Diabrotica Balteata; test: Diabrotica balteata (corn root worm) maize sprout test; conditions: 96 h, read-out: control (mortality and growth inhibition)
Experimental: Diabrotica Balteata, (Corn Root Worm)
Maize sprouts, placed on an agar layer in 24-well microtiter plates were treated with aqueous test solutions prepared from 10′000 ppm DMSO stock solutions by spraying. After drying, the plates were infested with L2 larvae (6 to 10 per well). The samples were assessed for mortality and growth inhibition in comparison to untreated samples 4 days after infestation.

[4] = test system: Plutella xylostella; test: Plutella xylostella (diamond back moth) artificial diet test; conditions: 120 h, read-out: control (mortality and growth inhibition)
Experimental: Plutella xylostella (Diamond Back Moth):
24-well microtiter plates with artificial diet were treated with aqueous test solutions prepared from 10′000 ppm DMSO stock solutions by pipetting. After drying, the plates were infested with L2 larvae (10 to 15 per well). The samples were assessed for mortality and growth inhibition in comparison to untreated samples 5 days after infestation.

[5] = test system: Myzus persicae; test: Myzus persicae (green peach aphid) leaf disc test; conditions: foliar, 144 h, read-out: control (mortality)
Experimental: Myzus persicae (Green Peach Aphid):
Sunflower leaf discs were placed on agar in a 24-well microtiter plate and sprayed with test solutions at an application rate of 200 ppm. After drying, the leaf discs were infested with an aphid population of mixed ages. After an incubation period of 6 DAT, samples were checked for mortality.

[6] = test system: Tetranychus urticae; test: Tetranychus urticae (two-spotted spider mite) leaf disc test; conditions: foliar, 192 h, application rate 200 ppm, bean leaf discs sprayed, 8 days after infestation, read-out: control (mortality on mixed population, mobile stages)
Experimental: Tetranychus urticae (Two-Spotted Spider Mite):
Bean leaf discs on agar in 24-well microtiter plates were sprayed with aqueous test solutions prepared from 10′000 ppm DMSO stock solutions. After drying the leaf discs were infested with a mite population of mixed ages. The samples were assessed for mortality on mixed population (mobile stages) 8 days after infestation.

[7] = application rate 200 ppm, sunflower leaf discs sprayed, mixed ages, 6 days after infestation
[8] = application rate 200 ppm, maize sprouts sprayed, L2 larvae, 4 days after infestation
[9] = application rate 200 ppm, artificial diet, L2 larvae, 5 days after infestation

CN(C(=O)c1cc(-c2cnn(-c3c(C(F)(F)F)c(OS(=O)(=O)C(F)(F)C(F)(F)Cl)nn3C)c2)ccc1Cl)C1CC1 [Compound 11, [5-[4-[4-chloro-3-[cyclopropyl(methyl)carbamoyl]phenyl]pyrazol-1-yl]-1-methyl-4-(trifluoromethyl)pyrazol-3-yl] 2-chloro-1,1,2,2-tetrafluoro-ethanesulfonate]
≥ 80%: percent control (mortality, anti-feedant effect or growth inhibition) at 200 ppm [1] | mortality at 200 ppm [2, 7] | mortality at 200 ppm [3, 8] | mortality at 200 ppm [4, 9]

CCN(C(=O)c1cc(-c2cnn(-c3c(C(F)(F)F)c(OS(=O)(=O)C(F)(F)C(F)(F)C(F)(F)C(F)(F)F)nn3C)c2)ccc1Cl)C1CC1 [Compound 13, [5-[4-[4-chloro-3-[cyclopropyl(ethyl)carbamoyl]phenyl]pyrazol-1-yl]-1-methyl-4-(trifluoromethyl)pyrazol-3-yl] 1,1,2,2,3,3,4,4,4-nonafluorobutane-1-sulfonate]
≥ 80%: percent control (mortality, anti-feedant effect or growth inhibition) at 200 ppm [1] | mortality at 200 ppm [2] | mortality at 200 ppm [3] | mortality at 200 ppm [4]

CCN(C(=O)c1cc(-c2cnn(-c3c(C(F)(F)F)c(OS(=O)(=O)C(F)(F)C(F)(F)F)nn3C)c2)ccc1Cl)C1CC1 [Compound 14, [5-[4-[4-chloro-3-[cyclopropyl(ethyl)carbamoyl]phenyl]pyrazol-1-yl]-1-methyl-4-(trifluoromethyl)pyrazol-3-yl] 1,1,2,2,2-pentafluoroethanesulfonate]
≥ 80%: percent control (mortality, anti-feedant effect or growth inhibition) at 200 ppm [1] | mortality at 200 ppm [2, 7] | mortality at 200 ppm [3, 8] | mortality at 200 ppm ([5]; application rate 200 ppm, sunflower leaf discs sprayed, mixed ages, 6 DAT) | mortality at 200 ppm [4, 9]

Cn1nc(OS(=O)(=O)C(F)(F)C(F)(F)F)c(C(F)(F)F)c1-n1cc(-c2ccc(Cl)c(C(=O)NC3CC3)c2)cn1 [Compound 20, [5-[4-[4-chloro-3-(cyclopropylcarbamoyl)phenyl]pyrazol-1-yl]-1-methyl-4-(trifluoromethyl)pyrazol-3-yl] 1,1,2,2,2-pentafluoroethanesulfonate]
≥ 80%: percent control (mortality, anti-feedant effect or growth inhibition) at 200 ppm [1] | mortality at 200 ppm [2, 7] | mortality at 200 ppm [3, 8] | mortality at 200 ppm [6] | mortality at 200 ppm [4, 9]

Cn1nc(OS(=O)(=O)C(F)(C(F)(F)F)C(F)(F)F)c(C(F)(F)F)c1-n1cc(-c2cnc(Cl)c(C(=O)NC3(C#N)CC3)c2)cn1 [Compound 24, [5-[4-[6-chloro-5-[(1-cyanocyclopropyl)carbamoyl]-3-pyridyl]pyrazol-1-yl]-1-methyl-4-(trifluoromethyl)pyrazol-3-yl] 1,1,1,2,3,3,3-heptafluoropropane-2-sulfonate]
≥ 80%: percent control (mortality, anti-feedant effect or growth inhibition) at 200 ppm [1] | mortality at 200 ppm [3, 8] | mortality at 200 ppm [6] | mortality at 200 ppm [4, 9]

Cn1nc(OS(=O)(=O)C(F)(F)C(F)(F)C(F)(F)C(F)(F)F)c(C(F)(F)F)c1-n1cc(-c2cnc(Cl)c(C(=O)NC3CC3)c2)cn1 [Compound 27, [5-[4-[6-chloro-5-(cyclopropylcarbamoyl)-3-pyridyl]pyrazol-1-yl]-1-methyl-4-(trifluoromethyl)pyrazol-3-yl] 1,1,2,2,3,3,4,4,4-nonafluorobutane-1-sulfonate]
≥ 80%: percent control (mortality, anti-feedant effect or growth inhibition) at 200 ppm [1] | mortality at 200 ppm [2] | mortality at 200 ppm [3] | mortality at 200 ppm [5] | mortality at 200 ppm [4]

CN(C(=O)c1cc(-c2cnn(-c3c(C(F)(F)F)c(OS(=O)(=O)C(F)(F)C(F)(F)C(F)(F)C(F)(F)F)nn3C)c2)cnc1Cl)C1CC1 [Compound 28, [5-[4-[6-chloro-5-[cyclopropyl(methyl)carbamoyl]-3-pyridyl]pyrazol-1-yl]-1-methyl-4-(trifluoromethyl)pyrazol-3-yl] 1,1,2,2,3,3,4,4,4-nonafluorobutane-1-sulfonate]
≥ 80%: percent control (mortality, anti-feedant effect or growth inhibition) at 200 ppm [1] | mortality at 200 ppm [2] | mortality at 200 ppm [3] | mortality at 200 ppm [4]

CCN(C(=O)c1cc(-c2cnn(-c3c(C(F)(F)F)c(OS(=O)(=O)C(F)(F)C(F)(F)C(F)(F)C(F)(F)F)nn3C)c2)cnc1Cl)C1CC1 [Compound 29, [5-[4-[6-chloro-5-[cyclopropyl(ethyl)carbamoyl]-3-pyridyl]pyrazol-1-yl]-1-methyl-4-(trifluoromethyl)pyrazol-3-yl] 1,1,2,2,3,3,4,4,4-nonafluorobutane-1-sulfonate]
≥ 80%: mortality at 200 ppm [3] | mortality at 200 ppm [5] | mortality at 200 ppm [4]

CN(C(=O)c1cc(-c2cnn(-c3c(C(F)(F)F)c(OS(=O)(=O)C(F)(F)C(F)(F)C(F)(F)C(F)(F)F)nn3C)c2)cnc1Cl)C1(C#N)CC1 [Compound 31, [5-[4-[6-chloro-5-[(1-cyanocyclopropyl)-methyl-carbamoyl]-3-pyridyl]pyrazol-1-yl]-1-methyl-4-(trifluoromethyl)pyrazol-3-yl] 1,1,2,2,3,3,4,4,4-nonafluorobutane-1-sulfonate]
≥ 80%: percent control (mortality, anti-feedant effect or growth inhibition) at 200 ppm [1] | mortality at 200 ppm [2] | mortality at 200 ppm [3] | mortality at 200 ppm [4]

CCN(C(=O)c1cc(-c2cc(-c3c(C(F)(F)F)c(OS(=O)(=O)C(F)(F)C(F)(F)C(F)(F)C(F)(F)F)nn3C)no2)ccc1Cl)C1CC1 [Compound 41, [5-[5-[4-chloro-3-[cyclopropyl(ethyl)carbamoyl]phenyl]isoxazol-3-yl]-1-methyl-4-(trifluoromethyl)pyrazol-3-yl] 1,1,2,2,3,3,4,4,4-nonafluorobutane-1-sulfonate]
≥ 80%: mortality at 200 ppm [3] | mortality at 200 ppm [5]

CN(C(=O)c1cc(-c2cc(-c3c(C(F)(F)F)c(OS(=O)(=O)C(F)(F)C(F)(F)C(F)(F)C(F)(F)F)nn3C)no2)ccc1Cl)C1(C#N)CC1 [Compound 43, [5-[5-[4-chloro-3-[(1-cyanocyclopropyl)-methyl-carbamoyl]phenyl]isoxazol-3-yl]-1-methyl-4-(trifluoromethyl)pyrazol-3-yl] 1,1,2,2,3,3,4,4,4-nonafluorobutane-1-sulfonate]
≥ 80%: percent control (mortality, anti-feedant effect or growth inhibition) at 200 ppm [1] | mortality at 200 ppm [2] | mortality at 200 ppm [3] | mortality at 200 ppm [4]

Cn1nc(OS(=O)(=O)C(F)(C(F)(F)F)C(F)(F)F)c(C(F)(F)F)c1-n1cc(-c2ccc(Cl)c(C(=O)N(/C(F)=C(\F)C(F)(F)F)C3(C#N)CC3)c2)cn1 [Compound 58, [5-[4-[4-chloro-3-[(1-cyanocyclopropyl)-[(E)-1,2,3,3,3-pentafluoroprop-1-enyl]carbamoyl]phenyl]pyrazol-1-yl]-1-methyl-4-(trifluoromethyl)pyrazol-3-yl] 1,1,1,2,3,3,3-heptafluoropropane-2-sulfonate]
≥ 80%: percent control (mortality, anti-feedant effect or growth inhibition) at 200 ppm [1] | mortality at 200 ppm [3, 8] | mortality at 200 ppm [6] | mortality at 200 ppm [4, 9]

Cn1nc(OS(=O)(=O)C(F)(C(F)(F)F)C(F)(F)F)c(C(F)(F)F)c1-n1cc(-c2ccc(Cl)c(C(N)=O)c2)cn1 [Compound 67, [5-[4-(3-carbamoyl-4-chloro-phenyl)pyrazol-1-yl]-1-methyl-4-(trifluoromethyl)pyrazol-3-yl] 1,1,1,2,3,3,3-heptafluoropropane-2-sulfonate]
≥ 80%: percent control (mortality, anti-feedant effect or growth inhibition) at 200 ppm [1] | mortality at 200 ppm [6] | mortality at 200 ppm [4, 9]
